According to patent US9783518B2, “Therapeutic agent and treatment method for ameliorating uremia” (Toray Industries, Inc., priority 2005, dated 2017):
“Also recorded” adds a separate entry of the source.

Assays:
healthy cats = assay: Blood pressure and heart rate (oscillometric) in healthy cats; type: in vivo, cat
Experimental: In this study, 3 male cats and 2 female cats, totally 5 Japanese cats, aging 3 to 6 years old were used, which were raised in an animal hospital and for which no abnormalities were observed clinically and by blood test. The subject cats were individually placed in each cage in which each cat was allowed to take water ad libitum, and each cat was fed twice a day after measuring the necessary items. For the purpose of acclimatization, the cats were measured for blood pressure noninvasively twice a day for 2 weeks.
Blood pressure and heart rate were measured as follows: These were noninvasively measured oscillometrically by using Life Scope 9 produced by NIHON KOHDEN. Systolic pressure, diastolic pressure and heart rate were measured 5 times each before the administration of beraprost sodium and 30 minutes, 1 hour, 2 hours and 3 hours after administration of beraprost sodium at the right foreleg of each cat. From the 5 measured values, the maximum and minimum values were excluded, and the average of the remaining 3 measured values was adopted as the measured value of the individual at the time point. The measurements were carried out every time for 7 days, and the responses by the respective administrations had about the same pattern. In the Example, the results (FIGS. 1 and 2) at the first administration of beraprost sodium are shown as a representative.
In each administration series, the same cat was used in each administration series as the subject cat for the correctness of the evaluation of the test drug. To eliminate the influence of the test drug of the previous series, wash out period of 2 weeks were given after the termination of the respective series. In the beraprost sodium administration series and the placebo administration series, the solution-containing capsules prepared in Example 2 were used. Administration was performed orally at fasting twice a day at intervals of 12 hours for continuous 7 days.
Statistical analysis was carried out using a statistical software Stat View J-4.5 (Abacus Concepts). Since the parameter values before and after the administration to the same individual are compared, significant test was carried out by the paired t-test. In any of the cases, when the significance level was less than 5%, it was judged as significant.

[1] = tested on: cats with chronic renal failure; assay: Clinical score of uremic symptoms (activity + appetite) in cats with chronic renal failure; type: in vivo, cat; conditions: for clinical total score (full points 5): after one month
Experimental: (§1) Testing methods for the patients showing uremia caused by chronic renal failure, employed in Example 4 or later, will now be described. The criteria and evaluation items for the cats and dogs with chronic renal failure are as follows: Diagnosis of uremia and chronic renal failure were performed totally taking clinical findings (including findings of uremia) and the results of the blood test, blood biochemical analysis and urinalysis into consideration. As the clinical findings of uremia, existence and degree of polydipsia and diuresis, dehydration, anorexia, weight loss, vomiting symptom and state of dehydration were observed. Existence of chronic renal failure was judged based on the serum Cre value as generally employed. As reference data for grasping the degree of progress of chronic renal failure, BUN value was also monitored.
This pilot clinical test was performed after obtaining informed consent of the owners of the cats (clients) before the start of the test, wherein the clients received explanations about the fact that beraprost sodium had already been approved as a drug for human chronic artery obstruction and had already been marketed, and about the safety thereof. Further, giving first priority to the benefit of the patients and clients, conventional therapeutic methods were also combined appropriately for the individuals with progressed renal failure. Examples of the concomitant drugs employed include synthetic active carbons such as Covalzin, Kremezin and Nefguard; calcium preparations such as calcium carbonate; formula meals such as k/d and low-protein diets; and infusion solutions. However, in cases where there was a rational reason and consent by the owner was obtained, beraprost sodium alone was administered even to the individual with progressed renal failure. On the other hand, drugs thought to influence on the action of beraprost sodium, such as vasodilators (e.g., enalapril), diuretic (e.g., furosemide), drugs which influence on renal blood flow (e.g., dopamine) and steroids (e.g., prednisolone) were not used.
(§2) Administration of beraprost sodium was conducted by orally administering the tablet with a content of 150 μg/tablet (Example 1) twice a day (300 μg/head/day). The administration was conducted every day and continued basically for 6 months, and in cases where the owner desired, the administration was continued even after the test period. The Examples of the present invention include both cases where the dosing period was less than 6 months and more than 6 months.
Evaluation of degree of improvement of the uremic symptoms was carried out as follows: From the clinical symptoms related to uremia, activity and appetite, which are unlikely to be overlooked and which can be observed universally from before to after the test period, were selected. […] The evaluation was carried out based on the total points (full points were 5 points). Thus, a higher point indicates more improvements in the clinical symptoms.

[2] = tested on: cats with chronic renal failure; assay: Blood biochemical analysis and urinalysis (BUN, serum Cre, glucose) in cats with chronic renal failure; type: in vivo, cat
Experimental: as §1
In the blood test, RBC, WBC, PCV, Hg and PLT were measured. In the blood biochemical analysis, TP, Tcho, AST, ALT, ALP, Tbil, BUN, creatinine, calcium, inorganic phosphorus, glucose, sodium ion, potassium ion and chloride ion were measured. In the urinalysis, protein amount, pH, occult blood, bilirubin and glucose were measured. To eliminate the circadian rhythm and influence by meals on the values of blood biochemical markers, every blood collection was carried out in the morning before feeding (at fasting).
As a more specific criterion for chronic renal failure in cats and dogs in the present Examples, a serum Cre value of 1.4 mg/dL in the blood test was employed. Serum Cre value was measured by creatinine deaminase-amidohydrolase method, and the BUN value as reference data for grasping the degree of progress of chronic renal failure was measured by urease-GLDH method.
as §2

[3] = tested on: rats which spontaneously develops hypertension; conditions: administered together with saline and special diet; cited from earlier work
[4] = first administration, 10-100 μg/kg oral
[5] = Case-A, 6 months after termination (12 months after start)
[6] = Case-E, combination therapy, first about 3 months
[7] = Case-A, 150 μg oral BID alone, from start of administration
[8] = Case-B, daily administration for 1 and half years
[9] = Case-G cat, before the administration (baseline)

In the case of `CC#CC[C@@H](C)[C@H](O)/C=C/[C@@H]1[C@H]2c3cccc(CCCC(=O)[O-])c3O[C@H]2C[C@H]1O.[Na+]` (mixture of isomers) [beraprost sodium, Sodium rac-(1R,2R,3aS,8bS)-2,3,3a,8b-tetrahydro-2-hydroxy-1-[(E)-(3S,4RS)-3-hydroxy-4-methyloct-1-en-6-ynyl]-1H-cyclopenta[b][1]benzofuran-5-butanoate], the “maximum change in heart rate (increase)” value (healthy cats; 100 μg/kg oral, 30 minutes after administration) is reported as “about 25%”, the “time to restoration of heart rate to the level before administration” value (healthy cats; any dose (10-100 μg/kg oral)) is reported as ≤ 2 h and the diastolic pressure (healthy cats; [4]) is reported as “No significant change”. For the same compound, the pulse pressure (healthy cats; [4]) was “No significant change”, the systolic pressure (healthy cats; [4]) was “No significant change” and the “change in heart rate” value (healthy cats; from 30 μg/kg/BID oral, 30 minutes to 1 hour after administration, not at 10 μg/kg/BID) was “significant (p<0.05) dose-dependent increase”. For the same compound, the “clinical score (full points 5)” value ([1]; Case-A, male cat 5 y, 150 μg tablet oral BID alone, first month) was 4, the “clinical score (full points 5)” value ([1]; Case-A, 150 μg oral BID alone, second month, maintained for 6 months) was 5 and the “clinical conditions / uremic symptoms at follow up” value [1, 5] was “not observed at all; also recorded: very good”. For the same compound, the “outcome of uremia and renal failure” value ([1]; Case-A, 6 months of 150 μg oral BID alone) was “completely cured”, the “differences from normal cats in clinical observations and biochemical markers” value ([1]; Case-A, end of the 6-month dosing period) was “no differences” and the “total score of the clinical symptoms (full points 5)” value ([1]; Case-B, male cat 4 y, 150 μg oral BID alone, 1 month after start, 3 points before) was 5 points. The clinical symptoms ([1]; Case-B, first to second month) was “slight amelioration”, the “clinical score (full points 5)” value ([1]; Case-B, from the fourth month) was 5 points and the “clinical score (full points 5)” value ([1]; Case-C, female cat 16 y, 150 μg oral BID alone, second week, 2 points before) was 4 points. The “clinical score (full points 5)” value ([1]; Case-C, after 2.5 months) was 5 points, the “clinical score (full points 5)” value ([1]; Case-C, after the sixth week) was 4 points and the “clinical score (full points 5)” value ([1]; Case-C, sixth week) was 2 points. For the same compound, the “clinical total score (full points 5)” value ([1]; Case-D, male Siamese cat 17 y, 150 μg oral BID alone, 2 points before) was 5 points, the “clinical total score (full points 5)” value ([1]; Case-E, 150 μg oral BID plus Covalzin 200 mg/BID, calcium preparation, formula meal, infusion, 0 point before) was 4 points and the dehydration [1, 6] was “completely disappeared”. For the same compound, the “clinical score (full points 5)” value ([1]; Case-E, combination therapy, for about 3 months) was 5 points, the “clinical score (full points 5)” value ([1]; Case-E, combination without Covalzin from fourth month, for about 2 months) was 3 points and the “clinical score (full points 5)” value ([1]; Case-E, combination without Covalzin, 7th to 8th month) was 5 points. The “clinical score (full points 5)” value ([1]; Case-F, 150 μg oral BID added to insulin, active carbon, calcium carbonate, first month, continues 10 months) was 5 points, the uremic symptoms ([1]; Case-F, combination therapy, after start of beraprost sodium) was “disappeared; also recorded: quickly improved” and the “appetite and desire for water” value ([1]; cats with renal failure, overall) was “clearly improved”. For the same compound, the “time at which BUN reached the minimum value” ([2]; Case-A, 150 μg oral BID alone) was “second”, the “time at which serum Cre reached the minimum value” ([2]; Case-A, 150 μg oral BID alone) was “fifth” and the BUN [2, 7] was “decreased”. For the same compound, the “serum Cre” value [2, 7] was “decreased”, the “BUN at follow up” value [2, 5] was “remained within the normal ranges; also recorded: maintained at normal levels” and the “serum Cre value at follow up” value [2, 5] was “remained within the normal ranges; also recorded: maintained at normal levels”. The BUN [2, 8] was “maintained at the normal levels”, the Cre [2, 8] was “maintained at the normal levels” and the BUN value ([2]; Case-B, first to second month) was “tendency that BUN value and serum Cre value increase”. The “serum Cre value” ([2]; Case-B, first to second month) was “tendency that BUN value and serum Cre value increase”, the BUN value ([2]; Case-B, from the fourth month) was “sharply decreased to the normal values” and the “serum Cre value” ([2]; Case-B, from the fourth month) was “sharply decreased to the normal values”. For the same compound, the BUN value ([2]; Case-C, during administration) was “continuously increased”, the “serum Cre value” ([2]; Case-C, during administration) was “did not change or slightly increased” and the BUN value ([2]; Case-D, after administration) was “continuously increased”. For the same compound, the “serum Cre value” ([2]; Case-D, after administration) was “kept a high value”, the BUN value ([2]; Case-E, 7th to 8th month) was “largely increased” and the Cre value ([2]; Case-E, 7th to 8th month) was “kept high”. The BUN value [2, 6] was “continuously increased”, the “serum Cre value” [2, 6] was “kept high” and the BUN value ([2]; Case-F, after start of beraprost sodium) was “kept high”. For the same compound, the “serum Cre value” ([2]; Case-F, throughout the entire period) was “continuously increased”, the BUN value [2, 9] was 52.2 mg/dL and the “serum Cre value” [2, 9] was 2.56 mg/dL. The “onset of glomerulonephritis (urinary protein excretion, glomerulus tissue image)” value [3] was “prevented”.
